Laboratory results published in US12280072B2, “Oligosaccharide compound for inhibiting intrinsic coagulation factor X-enzyme complex, and preparation method therefor and uses thereof” (Jiuzhitang Co., Ltd., priority 2017, dated 2025).

Experiments:
Type in all cases: biochemical
[1] = system: human-controlled plasma; assay: Anticoagulant activity assay: APTT clotting time
Method: (§1) 8.2 Methods • (1) Preparation of sample solution: Oligosaccharide compounds A1˜A8, B1˜B11 and oligosaccharide mixtures C1, D1, D2 were all dissolved in Tris-HCl buffer and diluted to the desired series of solubility. • (2) Anticoagulant activity assay: 90 μL of human-controlled plasma was added to the sample or 10 μL of the control solution, and then the clotting time (APTT and PT) was detected by the MC-4000 coagulometer according to the method described in the APTT and PT kit instructions. • (3) Coagulation factor inhibitory activity analysis: […]

[2] = system: human-controlled plasma; assay: Anticoagulant activity assay: PT clotting time
Method: as §1

[3] = system: plasma; assay: TT (thrombin time) clotting time
[4] = molecular target: T1, intrinsic factor Xase (Homo sapiens, UniProt P00740); assay: Xase inhibitory activity assay; details: for IC50: read-out: Drug concentration required to inhibit 50% of coagulation factor activity (IC50, ng/mL) Xase (converted)
T1 construct: 60 nM FIXa; purchased
T1 sequence (P00740 47-191 limits assumed): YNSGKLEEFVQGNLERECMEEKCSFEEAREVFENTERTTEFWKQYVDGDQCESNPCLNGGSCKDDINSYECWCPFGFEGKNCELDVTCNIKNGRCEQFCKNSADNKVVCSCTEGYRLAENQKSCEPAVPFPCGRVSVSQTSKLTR
T1 sequence (P00740 227-461 limits assumed): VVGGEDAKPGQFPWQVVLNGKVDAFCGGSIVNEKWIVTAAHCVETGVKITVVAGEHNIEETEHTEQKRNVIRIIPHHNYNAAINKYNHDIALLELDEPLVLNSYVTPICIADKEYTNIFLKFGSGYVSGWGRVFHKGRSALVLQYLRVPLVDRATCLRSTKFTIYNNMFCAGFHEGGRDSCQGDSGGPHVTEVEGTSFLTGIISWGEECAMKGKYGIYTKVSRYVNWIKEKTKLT
Method: Xase inhibitory activity assay: Detection was performed according to kit instructions and literature methods by combining the Factor VIII and […]. Specifically, to each well of a 96-well plate, 30 μL of test solution, control solution, or Tris-HCl buffer (negative control) was added, and 30 μl of FVIII (2 IU/ml), 30 μl of R2 (60 nM FIXa, containing FIIa, PC/PS, Ca^2+) were sequentially added, mixed by shaking the plate, incubated at 37° C. for 2 min; and then 30 μL of R1 (50 nM FX, containing direct thrombin inhibitor) was added, mixed by shaking the plate, incubated at 37° C. for 1 min; and then 30 μL of R3 (FXa chromogenic substrate SXa-11, about 8.4 mM) was added. The absorbance at 405 nm (OD405) was detected with a microplate reader, continuously measuring for 7.5 min at a interval of 30 s. The Xase activity and IC50 value of Xase inhibition of the test sample were calculated based on the OD405 change value.
(§2) Data processing: The average value of OD405 detected by the duplicated well was used as the detection value of the test sample and the reference of each concentration, and the slope of the linear fit between the detected value to the time value (the change rate of the absorbance value OD405/min) indicated enzymatic activity of coagulation factor. Taking the clotting factor activity of the negative control well as 100%, coagulation factor activity (percentage) in the presence of the test sample was calculated. The coagulation factor activity in the presence of the test sample was plotted against the concentration of the test sample, and fitted according to the following formula, to calculate the IC50 value: B=(IC50)^n/{(IC50)^n+[I]^n}
(§3) in the formula, B is the coagulation factor activity (percentage) in the presence of the test sample, [I] is the concentration of the test sample, IC50 is the half inhibitory concentration (concentration of the test sample required to inhibit 50% of the activity), and n is the Hill coefficient. • (4) Effect on surface activation and platelet activity: […]

[5] = molecular target: T2, FXa (Homo sapiens); assay: AT-dependent Xa inhibitory activity assay; details: in presence of AT; for IC50: read-out: Drug concentration required to inhibit 50% of coagulation factor activity (IC50, ng/mL) Xa (AT)
T2 construct: 8 μg/mL FXa solution; purchased
T2 sequence (P01008 33-464): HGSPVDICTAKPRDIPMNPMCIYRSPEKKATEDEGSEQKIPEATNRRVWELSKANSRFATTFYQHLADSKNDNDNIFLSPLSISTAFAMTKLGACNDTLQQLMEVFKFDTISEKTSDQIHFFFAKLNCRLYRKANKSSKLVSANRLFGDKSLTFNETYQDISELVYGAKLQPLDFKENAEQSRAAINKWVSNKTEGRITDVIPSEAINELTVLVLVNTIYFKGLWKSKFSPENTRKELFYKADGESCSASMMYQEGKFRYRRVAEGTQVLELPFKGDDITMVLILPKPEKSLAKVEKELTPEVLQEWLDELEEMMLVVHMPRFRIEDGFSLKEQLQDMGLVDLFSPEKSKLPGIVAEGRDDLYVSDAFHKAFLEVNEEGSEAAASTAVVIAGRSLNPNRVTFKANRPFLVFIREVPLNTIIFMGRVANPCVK
Method: AT-dependent Xa inhibitory activity assay: Heparin […] kit was used for detection. To a 96-well plate, 30 μL of sample, control solution or Tris-HCl buffer (negative control) was added, then 30 μL of 1 IU/mL AT solution was added, mixed well and incubated at 37° C. for 1 min; and than 30 μL of 8 μg/mL FXa solution was added, mixed well and incubated at 37° C. for 1 min, then 30 μL of pre-warmed 1.25 mM Xa chromogenic substrate SXa-11 was added. OD405 was detected by a microplate reader.
as §2, §3

[6] = molecular target: T3, FIIa (Homo sapiens); assay: AT-dependent IIa inhibitory activity assay; details: in presence of AT; for IC50: read-out: Drug concentration required to inhibit 50% of coagulation factor activity (IC50, ng/mL) Ha (AT)
T3 construct: antithrombin (i.e., active coagulation factor IIa); purchased
Method: AT-dependent IIa inhibitory activity assay: Heparin Anti-FIIa kit was used for detection. To a 96-well plate, 30 μL of sample, control solution or Tris-HCl buffer (negative control) was added, and then 30 μL of 1 IU/mL AT solution was added, mixed well by shaking the plate and incubated at 37° C. for 2 min; 30 μL of 24 IU/mL FIIa solution was added, mixed well by shaking the plate and incubated for 2 min at 37° C., and then 30 μL of pre-warmed 1.25 mM FIIa specific chromogenic substrate CS-01 (38) was added, mixed well by shaking the plate. The OD405 was detected by a microplate reader and the IC50 value of FIIa inhibition of each sample was calculated.
as §2, §3
T3 sequence (P01008 33-464): as above

[7] = molecular target: T4, FIIa (Homo sapiens); assay: HC-II-dependent IIa inhibitory activity assay; details: in presence of HC-II; read-out: Drug concentration required to inhibit 50% of coagulation factor activity (IC50, ng/mL) Ha (HC-II) (converted)
T4 construct: antithrombin (i.e., active coagulation factor IIa)
Method: HC-II-dependent IIa inhibitory activity assay: 30 μL of sample, control solution or Tris-HCl buffer (negative control) was added, 30 μL of 1 μM HCII solution was added, and incubated at 37° C. for 2 min; and then 30 μL of 20 NIH/mL FIIa was added, and incubated at 37° C. for 1 min; and finally 30 μL of pre-warmed 4.5 mM FIIa chromogenic substrate CS-01 (38) was added. OD405 was detected by a microplate reader and the IC50 value of FIIa inhibition of each sample was calculated.
as §2, with “B=(IC50)^n/{(IC50)^n+[I]^n} […]” for “B=(IC50)^n/{(IC50)^n+[I]^n}”
T4 sequence (P05546 20-499): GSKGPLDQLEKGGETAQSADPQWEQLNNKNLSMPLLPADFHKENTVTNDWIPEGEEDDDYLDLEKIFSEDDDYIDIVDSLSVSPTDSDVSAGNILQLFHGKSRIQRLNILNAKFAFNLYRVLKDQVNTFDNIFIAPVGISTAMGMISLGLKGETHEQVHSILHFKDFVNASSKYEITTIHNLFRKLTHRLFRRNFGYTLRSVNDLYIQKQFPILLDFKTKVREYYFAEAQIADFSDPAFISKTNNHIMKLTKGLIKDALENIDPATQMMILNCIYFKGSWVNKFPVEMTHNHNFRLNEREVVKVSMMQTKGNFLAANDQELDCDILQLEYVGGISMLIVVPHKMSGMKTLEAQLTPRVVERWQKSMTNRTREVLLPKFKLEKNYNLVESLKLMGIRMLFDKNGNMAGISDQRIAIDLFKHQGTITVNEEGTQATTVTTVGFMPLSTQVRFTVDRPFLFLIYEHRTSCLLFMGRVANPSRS

Compound | Drug concentration required for multiplication of coagulation time (μg/mL) APTT [1] | Drug concentration required for multiplication of coagulation time (μg/mL) PT [2] | Drug concentration required for multiplication of coagulation time (μg/mL) TT [3] | IC50 [4] | IC50 [5] | IC50 [6] | IC50 [7] | Drug concentration required to inhibit 50% of coagulation factor activity (IC50, ng/mL) Xase [4] | Drug concentration required to inhibit 50% of coagulation factor activity (IC50, ng/mL) Xa (AT) [5] | Drug concentration required to inhibit 50% of coagulation factor activity (IC50, ng/mL) Ha (AT) [6]
CC(=O)N[C@H]1[C@H](O[C@H]2[C@H](O[C@@H]3O[C@@H](C)[C@@H](OS(=O)(=O)O)[C@@H](OS(=O)(=O)O)[C@@H]3O)[C@@H](O)C(O)O[C@@H]2C(=O)O)O[C@H](COS(=O)(=O)O)[C@H](OS(=O)(=O)O)[C@@H]1O[C@@H]1OC(C(=O)O)=C[C@H](O[C@@H]2O[C@@H](C)[C@@H](OS(=O)(=O)O)[C@@H](OS(=O)(=O)O)[C@@H]2O)[C@H]1O (stereo partly drawn) [Compound B6, L-Fuc3S4S-(α1,3)-L-ΔUA-(α1,3)-{D-GaNAc4S6S-(β1,4)-[L-Fuc3S4S-(α1,3)]-D-GlcA-(β1,4)}˜-D-GalNAc4S6S-(β1,4)-[L-Fuc3S4S-(α1,3)]-D-GlcA] | 50.2 µg/mL | # (>128 μg/mL) | # (>128 μg/mL) | 1260 nM | > 3760 nM | > 3760 nM | 615 nM | – | – | –
CC(=O)NC(CO)C(OC1OC(C(=O)O)C(OC2OC(COS(=O)(=O)O)C(OS(=O)(=O)O)C(OC3OC(C(=O)O)C(OC4OC(COS(=O)(=O)O)C(OS(=O)(=O)O)C(OC5OC(C(=O)O)C(OC6OC(COS(=O)(=O)O)C(OS(=O)(=O)O)C(OC7OC(C(=O)O)C(OC8OC(COS(=O)(=O)O)C(OS(=O)(=O)O)C(OC9OC(C(=O)O)=CC(OC%10OC(C)C(OS(=O)(=O)O)C(O)C%10OS(=O)(=O)O)C9O)C8NC(C)=O)C(OC8OC(C)C(OS(=O)(=O)O)C(O)C8OS(=O)(=O)O)C7O)C6NC(C)=O)C(OC6OC(C)C(OS(=O)(=O)O)C(O)C6OS(=O)(=O)O)C5O)C4NC(C)=O)C(OC4OC(C)C(OS(=O)(=O)O)C(O)C4OS(=O)(=O)O)C3O)C2NC(C)=O)C(OC2OC(C)C(OS(=O)(=O)O)C(O)C2OS(=O)(=O)O)C1O)C(OS(=O)(=O)O)C(O)COS(=O)(=O)O [Compound A4, L-Fuc2S4S-(α1,3)-ΔUA-(α1,3)-{D-GaNAc4S6S-(β1,4)-[L-Fuc2S4S-(α1,3)]-D-GlcA-(β1,3)}n+1-D-GalNAc4S6S-ol] | 5.3 µg/mL | # (>128 μg/mL) | # (>128 μg/mL) | 6.67 nM | > 1180 nM | > 1180 nM | – | – | – | –
CC(=O)NC(CO)C(OC1OC(C(=O)O)C(OC2OC(COS(=O)(=O)O)C(OS(=O)(=O)O)C(OC3OC(C(=O)O)C(OC4OC(COS(=O)(=O)O)C(OS(=O)(=O)O)C(OC5OC(C(=O)O)C(OC6OC(COS(=O)(=O)O)C(OS(=O)(=O)O)C(OC7OC(C(=O)O)C(OC8OC(COS(=O)(=O)O)C(OS(=O)(=O)O)C(OC9OC(C(=O)O)C(OC%10OC(COS(=O)(=O)O)C(OS(=O)(=O)O)C(OC%11OC(C(=O)O)=CC(OC%12OC(C)C(OS(=O)(=O)O)C(O)C%12OS(=O)(=O)O)C%11O)C%10NC(C)=O)C(OC%10OC(C)C(OS(=O)(=O)O)C(O)C%10OS(=O)(=O)O)C9O)C8NC(C)=O)C(OC8OC(C)C(OS(=O)(=O)O)C(O)C8OS(=O)(=O)O)C7O)C6NC(C)=O)C(OC6OC(C)C(OS(=O)(=O)O)C(O)C6OS(=O)(=O)O)C5O)C4NC(C)=O)C(OC4OC(C)C(OS(=O)(=O)O)C(O)C4OS(=O)(=O)O)C3O)C2NC(C)=O)C(OC2OC(C)C(OS(=O)(=O)O)C(O)C2OS(=O)(=O)O)C1O)C(OS(=O)(=O)O)C(O)COS(=O)(=O)O [Compound A5, L-Fuc2S4S-(α1,3)-ΔUA-(α1,3)-{D-GaNAc4S6S-(β1,4)-[L-Fuc2S4S-(α1,3)]-D-GlcA-(β1,3)}n+1-D-GalNAc4S6S-ol] | 3.9 µg/mL | # (>128 μg/mL) | # (>128 μg/mL) | 4.65 nM | > 985 nM | > 985 nM | – | – | – | –
CC(=O)N[C@H]1[C@H](O[C@@H]([C@H](O[C@@H]2O[C@@H](C)[C@@H](OS(=O)(=O)O)[C@@H](OS(=O)(=O)O)[C@@H]2O)[C@@H](O)CO)[C@H](O)C(=O)O)O[C@H](COS(=O)(=O)O)[C@H](OS(=O)(=O)O)[C@@H]1O[C@@H]1OC(C(=O)O)=C[C@H](O[C@@H]2O[C@@H](C)[C@@H](OS(=O)(=O)O)[C@@H](OS(=O)(=O)O)[C@@H]2O)[C@H]1O [Compound B1, L-Fuc3S4S-(α1,3)-L-ΔUA-(α1,3)-{D-GalNAc4S6S-(β1,4)-[L-Fuc3S4S-(α1,3)]-D-GlcA-(β1,3)}˜-D-GalNAc4S6S-(β1,4)-[L-Fuc3S4S-(α1,3)]-D-GlcA-ol] | 53.9 µg/mL | # (>128 μg/mL) | # (>128 μg/mL) | 639 nM | > 3760 nM | > 3760 nM | 530 nM | – | – | –
COC(=O)C1=CC(OC2OC(C)C(OS(=O)(=O)O)C(O)C2OS(=O)(=O)O)C(O)C(OC2C(NC(C)=O)C(OC3C(C(=O)OC)OC(OC4C(NC(C)=O)C(OC5C(C(=O)OC)OC(OC(C(CO)NC(C)=O)C(OS(=O)(=O)O)C(O)COS(=O)(=O)O)C(O)C5OC5OC(C)C(OS(=O)(=O)O)C(O)C5OS(=O)(=O)O)OC(COS(=O)(=O)O)C4OS(=O)(=O)O)C(O)C3OC3OC(C)C(OS(=O)(=O)O)C(O)C3OS(=O)(=O)O)OC(COS(=O)(=O)O)C2OS(=O)(=O)O)O1 [Compound A6, L-Fuc2S4S-(α1,3)-[6-Methyl-ΔUA-(α1,3)]-{D-GaNAc4S6S-(β1,4)-[L-Fuc2S4S-(α1,3)-]-D-6-Methyl-GlcA-(β1,4)}2-D-GalNAc4S6S-ol] | 7.5 µg/mL | # (>128 μg/mL) | # (>128 μg/mL) | 26.5 nM | > 1940 nM | > 1940 nM | – | – | – | –
L-Fuc2S4S-(α1,3)-ΔUA-(α1,3)-{D-GaNAc4S6S-(β1,4)-[L-Fuc2S4S-(α1,3)]-D-GlcA-(β1,3)}n+1-D-GalNAc4S6S-ol [Compound A1] | 60.1 µg/mL | # (>128 μg/mL) | # (>128 μg/mL) | – | – | – | – | ## (>5000 ng/mL) | ## (>5000 ng/mL) | ## (>5000 ng/mL)
